Results as given in PMC7747594, “Protease-activated receptor-2 ligands reveal orthosteric and allosteric mechanisms of receptor inhibition” (Communications Biology, 2020).
“And” between values parts separate entries of the source, which are not always exact repeats. Equal entries are not always repeated. “Also recorded” adds a separate entry of the source. Where two headings read alike, the source gives them in different places.

What was measured:
Format in all cases: cell-based
rat PAR2 = target: T1, rat PAR2 (Rattus norvegicus, UniProt Q63645); assay: Ca^2+ flux assay, inhibition of SLIGRL-NH2 activation in rat KNRK cells
T1 construct: a rat KNRK cell line with endogenous expression of rat PAR2; host or cells: rat KNRK cells
T1 sequence (Q63645 26-397): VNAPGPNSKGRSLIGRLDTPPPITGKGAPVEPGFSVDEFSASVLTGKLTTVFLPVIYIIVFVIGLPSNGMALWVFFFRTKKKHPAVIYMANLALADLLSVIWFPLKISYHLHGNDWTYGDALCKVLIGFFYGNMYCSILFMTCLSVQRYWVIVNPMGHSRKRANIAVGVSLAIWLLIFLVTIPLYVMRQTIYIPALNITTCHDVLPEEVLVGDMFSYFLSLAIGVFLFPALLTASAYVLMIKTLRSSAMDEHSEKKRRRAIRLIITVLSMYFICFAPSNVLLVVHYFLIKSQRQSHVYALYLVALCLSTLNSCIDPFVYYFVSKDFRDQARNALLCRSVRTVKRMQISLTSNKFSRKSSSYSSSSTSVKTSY

hPAR2 [1] = target: T2, hPAR2 (Homo sapiens, UniProt P55085); assay: β-arrestin-2 recruitment assay, inhibition of SLIGRL-NH2 in U2OS-hPAR2 cells
T2 sequence (P55085 26-397): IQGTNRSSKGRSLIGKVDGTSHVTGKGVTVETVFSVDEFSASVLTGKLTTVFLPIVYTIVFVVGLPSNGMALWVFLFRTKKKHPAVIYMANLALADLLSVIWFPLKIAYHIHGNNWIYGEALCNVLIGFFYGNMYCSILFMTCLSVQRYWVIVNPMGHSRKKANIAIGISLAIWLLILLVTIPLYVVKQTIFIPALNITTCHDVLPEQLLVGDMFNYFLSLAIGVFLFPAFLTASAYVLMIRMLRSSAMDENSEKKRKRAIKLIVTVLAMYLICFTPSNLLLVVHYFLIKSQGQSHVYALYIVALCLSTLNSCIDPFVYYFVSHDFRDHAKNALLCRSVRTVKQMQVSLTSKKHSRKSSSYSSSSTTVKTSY
Procedure: β‐Arrestin-2 recruitment was measured in U2OS-hPAR2 cells using the DiscoverX assay kit, according to the manufacturer’s instructions. Briefly, cells were seeded in McCoy’s 5A media containing 10% FBS at 4000 cells per well in 384-well plates and incubated overnight at 37 °C, 5% CO2. Antagonist compounds (30 µM–1 nM) were incubated with the cells for 30 min prior to the addition of agonist SLIGRL-NH2 (10 µM) at EC80 and further incubation for 90 min at 37 °C. Working detection solution (12 µl) was then added to each well, incubated at room temperature in the dark for 60 min and the chemiluminescence signal read on the EnVision microplate reader (Perkin Elmer).
(§1) Binding data were analysed using the One site – Fit Ki model in GraphPad Prism 8 (GraphPad Software) to determine binding affinity. Pharmacology in vitro potency data was analysed with a 4-parameter logistic fit using the equation y = Bottom + (Top − Bottom)/[…] where y is the response, x is the 10-logarithm of the drug concentration, Bottom is no response and Top is full response in GraphPad Prism 8 or Genedata Screener (Genedata). pEC50 and pIC50 data are presented as mean ± standard error of the mean (s.e.m.) derived from the number of independent experiments stated. Schild slope analysis was calculated using Graphpad Prism 8 Gaddum/Schild EC50 global fitting (shared model parameters between all data sets) competitive model. […] Schild slope quantifies the shifts in agonist response in the presence of antagonist, a Schild slope of 1 indicates the antagonist is competitive and extra-sum-of-squares F-test (p < 0.05) was used to compare the calculated Schild slope against a hypothetical Schild slope of 1. […] The relative activity was calculated using (EmaxEC50’)/(Emax’EC50) with the Hill slope help constant at 1. EC50’ and Emax’ denote the EC50 and Emax in the absence of allosteric modulator, while EC50 and Emax denote those measured in the presence of allosteric modulator. When the Hill slope = 1, the relative activity plot approaches an asymptote corresponding to the estimate of the γ value.

hPAR2 [2] = target: T2, hPAR2; assay: Ca^2+ flux assay, inhibition of trypsin activation in 1321N1-hPAR2 cells (with 1 µM Vorapaxar); details: for shape of inhibition of trypsin-induced Ca^2+ mobilisation: 1321N1-hPAR2 cells, 1 µM Vorapaxar
hPAR2 [3] = target: T2, hPAR2; assay: Ca^2+ flux assay, agonist mode, 1321N1-hPAR2 cells; parameters: Ca^2+ mobilisation tested as agonist, Fig 1c source data / Ca2+ response (Fig 2c), individual replicate values: unit not given here; details: for Ca^2+ mobilisation tested as agonist, Fig 1c source data: log[compound], individual data points; for agonist activity (tested as agonists): Ca^2+ assay and other signalling assays
Procedure: Cells were loaded with Fluo-8 NW calcium dye (AAT Bioquest) for 30 min at 37 °C before compounds in Hank’s balanced salt solution (HBSS, ThermoFisher Scientific) with 20 mM HEPES (ThermoFisher Scientific), 0.1% bovine serum albumin (BSA, Sigma) and 0.5% DMSO were added and simultaneously evaluated for changes in intracellular [Ca^2+] using FLIPR TETRA (Molecular Devices) to detect agonism. For each concentration, the difference between the maximum peak Ca^2+ response and baseline response is reported. […] Antagonism experiments were also carried out on 1321N1-PAR2[WT], 1321N1-PAR2[F154A], and 1321N1-PAR2[G157C] as described. Experiments with trypsin in 1321N1-hPAR2 cells were performed in the presence of 1 µM Vorapaxar (Chemtronica) to remove any interference of PAR1 activity. […] Antagonism experiments for CHO-hPAR2 and HT-29 cells were performed in 96-well plates at 30,000 cells/well. Cells were loaded with Fluo-3 AM calcium dye (Sigma-Aldrich) for 60 min at 37 °C in HBSS with 1% FBS, 0.2% pluronic acid, 20 mM HEPES and 2.5 mM probenecid prior to the addition of antagonist. The antagonist was pre-incubated for 60 min at 37 °C followed by the addition of bovine trypsin (30 nM) at EC80. Intracellular [Ca^2+] flux was measured using FLIPR TETRA (Molecular Devices) and the difference between the maximum peak Ca^2+ response and baseline response is reported.
as §1

Row | SMILES | shape of inhibition of trypsin-induced Ca^2+ mobilisation (hPAR2 [2]) | Ca^2+ mobilisation tested as agonist, Fig 1c source data (hPAR2 [3]; M -4.38018) | Ca^2+ mobilisation tested as agonist, Fig 1c source data (hPAR2 [3]; M -4.88008) | Ca^2+ mobilisation tested as agonist, Fig 1c source data (hPAR2 [3]; M -5.38018) | Ca^2+ mobilisation tested as agonist, Fig 1c source data (hPAR2 [3]; M -5.88008) | Ca^2+ mobilisation tested as agonist, Fig 1c source data (hPAR2 [3]; M -6.38007) | Ca^2+ mobilisation tested as agonist, Fig 1c source data (hPAR2 [3]; M -6.88008) | Ca^2+ mobilisation tested as agonist, Fig 1c source data (hPAR2 [3]; M -7.37997) | Ca^2+ mobilisation tested as agonist, Fig 1c source data (hPAR2 [3]; M -7.88008) | Ca^2+ mobilisation tested as agonist, Fig 1c source data (hPAR2 [3]; M -8.37986) | Ca^2+ mobilisation tested as agonist, Fig 1c source data (hPAR2 [3]; M -8.87976) | agonist activity (tested as agonists) (hPAR2 [3]) | further results
1 | C[C@@H](C1CCCCC1)n1c(-c2cc3c(cc2Br)OCO3)nc2cc(C(=O)Nc3ccc(C#N)cc3)ccc21 [AZ3451] | biphasic inhibition curves | 2.619 and -1.693 and 12.8149 and 8.844 and 5.039 | 6.334 and 5.142 and -5.002 and 2.343 and 2.365 | 7.004 and 3.992 and 6.097 and 3.93 and 1.406 | 0.5481 and 1.501 and 3.614 and 4.082 and 2.434 | 1.705 and 0.03194 and -3.0303 and 2.1164 and 2.6397 | 1.523 and 0.2236 and 5.2939 and 1.134 and 0.3771 | 1.949 and 4.9505 and 1.716 and -0.3779 and 3.12 | 3.289 and 0.09582 and 3.3954 and 1.814 and 4.697 | 0.7917 and -0.8623 and -2.957 and 0.7559 and 2.503 | 1.34 and -1.757 and 1.643 and 4.989 and 1.8855 | no effect; also recorded: no agonist activity | IC50 (rat PAR2; SLIGRL-NH2, rat PAR2 in KNRK cells, mean ± s.e.m., read-out: Ca^2+ flux (rPAR2) pIC50 (converted)): 3.16 nM; IC50 (hPAR2 [1]; SLIGRL-NH2, U2OS-hPAR2, mean ± s.e.m., read-out: β-arrestin (hPAR2) pIC50 (converted)): 87.1 nM; remaining activity at 0.03 µM (hPAR2 [2]; log[compound], M -7.52288, individual data points, read-out: trypsin Ca^2+ mobilisation, antagonist response, Fig 1g source data): 71.7%; remaining activity at 0.01 µM (hPAR2 [2]; log[compound], M -8, individual data points, read-out: trypsin Ca^2+ mobilisation, antagonist response, Fig 1g source data): 68%; remaining activity at 0.003 µM (hPAR2 [2]; log[compound], M -8.52288, individual data points, read-out: trypsin Ca^2+ mobilisation, antagonist response, Fig 1g source data): 73%; remaining activity at 0.001 µM (hPAR2 [2]; log[compound], M -9, individual data points, read-out: trypsin Ca^2+ mobilisation, antagonist response, Fig 1g source data): 78.8%; remaining activity at 0.0003 µM (hPAR2 [2]; log[compound], M -9.52288, individual data points, read-out: trypsin Ca^2+ mobilisation, antagonist response, Fig 1g source data): 82.9%; remaining activity at 0.0001 µM (hPAR2 [2]; log[compound], M -10, individual data points, read-out: trypsin Ca^2+ mobilisation, antagonist response, Fig 1g source data): 99.7%; IC50 (hPAR2 [2]; trypsin, read-out: inhibition of trypsin activation of PAR2 signalling, biphasic, pIC50 first phase (converted)): 3.16 nM; IC50 (hPAR2 [2]; trypsin, read-out: inhibition of trypsin activation of PAR2 signalling, biphasic, pIC50 second phase (converted)): 1000 nM
2 | CCCc1cc(F)ccc1C(O)c1ncc[nH]1 (centres unmarked) [AZ8838] | sigmoidal and monophasic | 2.862 and -0.09582 and -3.103 and -1.512 and -1.8855 | -0.3654 and 0.4152 and -1.57 and -6.425 and -2.983 | 1.583 and 0.2874 and -4.491 and -0.4535 and -1.063 | 3.532 and 5.014 and 4.491 and 1.663 and -0.1714 | 1.035 and 1.437 and 3.98 and 0.4535 and 1.817 | 1.705 and 1.246 and -5.002 and 2.343 and 3.3939 | 2.862 and -1.309 and -0.8397 and 2.948 and 1.406 | 2.375 and -2.268 and 1.1318 and 4.308 and 1.268 | -1.218 and 0.543 and 2.665 and 1.436 and 3.188 | 4.6285 and 0.6707 and 4.491 and -8.012 and -2.845 | no effect; also recorded: no agonist activity | IC50 (rat PAR2): 5010 nM; IC50 (hPAR2 [1]): 794 nM; IC50 (hPAR2 [2]): 3980 nM; remaining activity at 1.318 µM (hPAR2 [2]; read-out: trypsin Ca^2+ mobilisation, antagonist response, Fig 1g source data, log[compound], M -5.88008, individual data points): 86.9%; remaining activity at 0.1318 µM (hPAR2 [2]; read-out: trypsin Ca^2+ mobilisation, antagonist response, Fig 1g source data, log[compound], M -6.88008, individual data points): 93.7%; remaining activity at 0.04169 µM (hPAR2 [2]; read-out: trypsin Ca^2+ mobilisation, antagonist response, Fig 1g source data, log[compound], M -7.37997, individual data points): 93.1%; remaining activity at 0.01318 µM (hPAR2 [2]; read-out: trypsin Ca^2+ mobilisation, antagonist response, Fig 1g source data, log[compound], M -7.88008, individual data points): 97.5%
